According to patent US4745124A, “Orally effective anti-hypertensive agents” (priority 1983, dated 1988):
“And” between values parts separate entries of the source, which are not always exact repeats. Equal entries are not always repeated.

Assays:
[1] = target: T1, angiotensin converting enzyme (human urinary ACE) (Homo sapiens, UniProt P12821); assay: ACE activity assay, I50 (Example 216A); type: biochemical; conditions: human urinary ACE; Benzoyl-GlyHisLeu 1×10^-4 M; Hepes pH 8.0; 37° C; in vitro; read-out: I50
T1 construct: ACE purified from human urine; from tissue; host or cells: human urine (ultrafiltration and Sephacryl S-200, first eluting peak; prepared as in Ryan et al., Tissue and Cell 10, 555 (1978))
T1 sequence (P12821 30-1232 limits assumed): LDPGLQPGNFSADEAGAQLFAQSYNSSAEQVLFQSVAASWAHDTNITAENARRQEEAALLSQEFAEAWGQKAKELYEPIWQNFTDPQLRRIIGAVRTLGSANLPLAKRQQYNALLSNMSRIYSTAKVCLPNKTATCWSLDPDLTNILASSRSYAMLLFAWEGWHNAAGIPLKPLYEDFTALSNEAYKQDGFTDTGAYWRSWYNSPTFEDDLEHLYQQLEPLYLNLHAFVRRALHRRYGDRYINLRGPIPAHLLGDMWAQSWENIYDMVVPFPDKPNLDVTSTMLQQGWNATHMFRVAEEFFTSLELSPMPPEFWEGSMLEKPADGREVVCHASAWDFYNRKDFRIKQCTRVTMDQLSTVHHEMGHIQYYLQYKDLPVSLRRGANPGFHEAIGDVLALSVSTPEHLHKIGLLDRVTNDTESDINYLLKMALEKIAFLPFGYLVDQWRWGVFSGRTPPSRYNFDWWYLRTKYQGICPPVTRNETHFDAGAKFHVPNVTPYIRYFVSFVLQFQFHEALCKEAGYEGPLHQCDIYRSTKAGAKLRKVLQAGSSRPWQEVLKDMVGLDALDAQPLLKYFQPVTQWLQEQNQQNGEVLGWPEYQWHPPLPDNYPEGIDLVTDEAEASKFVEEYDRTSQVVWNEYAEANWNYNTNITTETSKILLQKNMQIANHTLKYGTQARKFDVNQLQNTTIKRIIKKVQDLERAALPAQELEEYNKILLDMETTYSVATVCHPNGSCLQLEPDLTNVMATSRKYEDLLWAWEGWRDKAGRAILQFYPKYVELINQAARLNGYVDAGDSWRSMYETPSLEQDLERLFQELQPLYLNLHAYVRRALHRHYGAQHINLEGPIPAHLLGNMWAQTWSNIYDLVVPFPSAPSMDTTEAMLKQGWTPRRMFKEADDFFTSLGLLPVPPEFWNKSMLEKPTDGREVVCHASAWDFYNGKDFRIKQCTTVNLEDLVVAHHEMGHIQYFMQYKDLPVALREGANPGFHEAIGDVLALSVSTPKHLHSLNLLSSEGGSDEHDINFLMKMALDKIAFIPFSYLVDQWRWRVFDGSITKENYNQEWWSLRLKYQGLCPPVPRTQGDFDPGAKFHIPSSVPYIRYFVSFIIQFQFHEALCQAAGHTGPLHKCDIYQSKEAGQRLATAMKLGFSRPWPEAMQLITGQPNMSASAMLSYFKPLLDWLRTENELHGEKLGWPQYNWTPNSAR

[2] = system: pressor effects of angiotensin I; assay: oral effectiveness: blood pressure response to angiotensin I in anesthetized rats; type: in vivo, rat; conditions: for Blood pressure response to angiotensin I (% of control): oral 10 mg, Ex. 225; for Blood Pressure Response to 400 ng/kg of Angiotensin I: oral 17 μmol/kg, Ex. 228
Procedure, shortened: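 Fasted rats under pentobarbital anesthesia (50-60 mg/kg i.p.), ventilated, with carotid arterial pressure recorded; i.v. angiotensin I (80 ng, 160 ng or 400 ng/kg) or angiotensin II (80 ng) challenges repeated at timed intervals after oral gavage of compound (2-20 mg/kg, 10 mg, 17 or 23 μmol/kg) in aqueous NaHCO3.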

[3] = system: pressor effects of angiotensin II; assay: oral: blood pressure response to angiotensin II in anesthetized rats; type: in vivo, rat; conditions: 12 or 20 mg/kg
Description: Rats (210-290 g body weight) were fasted overnight and then anesthetized with intraperitoneal pentobarbital, 50-60 mg/kg. Tracheostomy was performed and the animals were ventilated mechanically. A cannula was inserted into a femoral vein for injection of angiotensin I or II, and a second cannula was inserted into a common carotid artery for direct measurement of arterial blood pressure. Heparin, 1,000 units, was injected via the femoral vein to prevent coagulation. Blood pressure was measured with a pressure transducer connected to a polygraph. The rats were injected with 80 ng of angiotensin I or angiotensin II in 20 μl of 0.9 g % NaCl; an amount of antiotensin I or II sufficient to raise mean arterial blood pressure by 27-40 mm Hg. After the responsiveness of a given rat to angiotensins I and II was established, compound (I), at 2 or 5 mg/kg (drug dissolved in 0.5 ml of H2 O plus 10 μl of 1N NaHCO3), was given via a stomach tube. At timed intervals, the effects of 80 ng of angiotensin I or angiotensin II on mean arterial blood pressure were tested.
Rats were prepared as described in Example 222. Compound (II) [N-benzoyl-L-phenylalanylthiopropanoyl)-L-proline] was given orally, via a stomach tube, at a dose of 12 mg/kg or 20 mg/kg. Compound (II) was dissolved in 0.5 ml of H2 O plus 10 μl of 1N NaHCO3. […]

[4] = resistance of thioester compounds to alkaline hydrolysis; type: physicochemical
Text: Therefore the observed inhibitory effects cannot be accounted for by postulating spontaneous hydrolysis of the thioester bond to regenerate the free sulfhydryl group.

[5] = system: pressor effects of angiotensin I; assay: intravenous effectiveness: blood pressure response to angiotensin I in anesthetized rats; type: in vivo, rat; conditions: i.v. 2 μmol/kg, Ex. 229
Description: (§1) Anesthetized rats were prepared as described in Example 228. After the responsiveness of a given rat to angiotensin I was established, the named compound at 2 μmol/kg, in a volume of 15 μl of 0.01N sodium bicarbonate, was injected via a femoral vein. At timed intervals, the effects of angiotensin I, 400 ng/kg, on mean arterial blood pressure were tested. Results are shown below:
as §1, with “231.” for “228.”, “compound,” for “compound”
Anesthetized rats were prepared as described in Example 239. The animals were administered the named compound via a femoral vein in 15 μl of 0.01N sodium bicarbonate, after the control response to 400 ng/kg of angiotensin I was measured. […] The time required for recovery of one half of the lost responsiveness to angiotensin I, following injection of the named compound, was designated t1/2. […] Results are shown for two dose levels:
Anesthetized rats were prepared as described in Example 242. The named compound was administered intravenously via a femoral vein, at the stated dose, in 15 μl of 0.01N sodium bicarbonate. The response to intravenous administration was a rapid decrease in responsiveness to Angtiotensin I, 400 ng/kg, followed by a gradual recovery to the pretreatment level of responsiveness. The time required for recovery of one half the lost responsiveness to angiotensin I, following injection of the named compound, is designated t1/2. […] Results are shown for the three dose levels:
The intravenous effectiveness of the named compound was examined by following the procedure described in Example 244 except that 1 μmole/kg of the drug was given intravenously. The results are shown below:
The intravenous effectiveness of the named compound was examined by following the procedure described in Example 246 except that 1 μmole/Kg of the drug was given intravenously.

In the case of CC(SC(=O)C(Cc1ccccc1)NC(=O)c1ccccc1)C(=O)N1CC=C[C@H]1C(=O)O (stereo partly drawn) [(B), N-(2-benzoylphenylalanylthiopropanoyl)-L-3,4-dehydroproline], the IC50 [1] is reported as 3 nM, the “Blood pressure response to angiotensin I (% of control)” value ([2]; 3 min) is reported as 100% and the “Blood pressure response to angiotensin I (% of control)” value ([2]; 9 min) is reported as 81%. The “Blood pressure response to angiotensin I (% of control)” value ([2]; 14 min) was 74%, the “Blood pressure response to angiotensin I (% of control)” value ([2]; 24 min) was 74% and the “Blood pressure response to angiotensin I (% of control)” value ([2]; 28 min) was 74%. For the same molecule, the “Blood pressure response to angiotensin I (% of control)” value ([2]; 34 min) was 63%, the “Blood pressure response to angiotensin I (% of control)” value ([2]; 44 min) was 56% and the “Blood pressure response to angiotensin I (% of control)” value ([2]; 54 min) was 44%. The “Blood pressure response to angiotensin I (% of control)” value ([2]; 64 min) was 56%, the “Blood pressure response to angiotensin I (% of control)” value ([2]; 85 min) was 37% and the “Blood pressure response to angiotensin I (% of control)” value ([2]; 94 min) was 44%. The “Blood pressure response to angiotensin I (% of control)” value ([2]; 104 min) was 74%, the “Blood pressure response to angiotensin I (% of control)” value ([2]; 114 min) was 56% and the “Blood pressure response to angiotensin I (% of control)” value ([2]; 146 min) was 100%.

In the case of CC(SC(=O)C(Cc1ccccc1)NC(=O)c1ccccc1)C(=O)N1CCC[C@H]1C(=O)O (stereo partly drawn) [Compound (II), 2-benzoylphenylalanylthiopropanoyl-L-proline], the IC50 [1] is reported as 70 nM and 40 nM, the “Blood Pressure Response to 80 ng of Angiotensin I” value (“Blood Pressure Response to 80 ng” for short) ([2]; oral 12 mg/kg, 6 min, Rat 1) is reported as 109 % of control and the “Blood Pressure Response to 80 ng” value ([2]; oral 12 mg/kg, 12 min, Rat 1) is reported as 80 % of control. For the same molecule, the “Blood Pressure Response to 80 ng” value ([2]; oral 12 mg/kg, 30 min, Rat 1) was 51 % of control, the “Blood Pressure Response to 80 ng” value ([2]; oral 12 mg/kg, 47 min, Rat 1) was 71 % of control and the “Blood Pressure Response to 80 ng” value ([2]; oral 12 mg/kg, 56 min, Rat 1) was 69 % of control. For the same molecule, the “Blood Pressure Response to 80 ng” value ([2]; oral 12 mg/kg, 76 min, Rat 1) was 63 % of control, the “Blood Pressure Response to 80 ng” value ([2]; oral 12 mg/kg, 150 min, Rat 1) was 49 % of control and the “Blood Pressure Response to 80 ng” value ([2]; oral 12 mg/kg, 158 min, Rat 1) was 57 % of control. The “Blood Pressure Response to 80 ng” value ([2]; oral 20 mg/kg, 6 min, Rat 2) was 91 % of control, the “Blood Pressure Response to 80 ng” value ([2]; oral 20 mg/kg, 12 min, Rat 2) was 70 % of control and the “Blood Pressure Response to 80 ng” value ([2]; oral 20 mg/kg, 23 min, Rat 2) was 76 % of control. The “Blood Pressure Response to 80 ng” value ([2]; oral 20 mg/kg, 30 min, Rat 2) was 76 % of control, the “Blood Pressure Response to 80 ng” value ([2]; oral 20 mg/kg, 56 min, Rat 2) was 55 % of control and the “Blood Pressure Response to 80 ng” value ([2]; oral 20 mg/kg, 76 min, Rat 2) was 40 % of control. The “Blood Pressure Response to 80 ng” value ([2]; oral 20 mg/kg, 95 min, Rat 2) was 40 % of control, the “Blood Pressure Response to 80 ng” value ([2]; oral 20 mg/kg, 142 min, Rat 2) was 76 % of control and the “Blood Pressure Response to 80 ng” value ([2]; oral 20 mg/kg, 158 min, Rat 2) was 76 % of control. For the same molecule, the “Blood Pressure Response to 80 ng” value ([2]; oral 20 mg/kg, 166 min, Rat 2) was 76 % of control, the “Blood Pressure Response to 80 ng” value ([2]; oral 20 mg/kg, 176 min, Rat 2) was 76 % of control and the “pressor effects of angiotensin II (specificity)” value [3] was “did not inhibit”. The “resistance to alkaline hydrolysis” value [4] was “surprisingly resistant to alkaline hydrolysis”.

In the case of C[C@H](CSC(=O)[C@H](Cc1ccccc1)NC(=O)[C@H](CCCCN)NC(=O)C1CCCC1)C(=O)N1CCC[C@H]1C(=O)O [N-alpha-[3-(N-alpha-cyclopentylcarbonyl-L-lysyl-L-phenylalanylthio)-2-D-methylpropanoyl]-L-proline], the IC50 [1] is reported as 15 nM, the “Blood Pressure Response to 400 ng/kg of Angiotensin I” value (shortened to “Blood Pressure Response to 400 ng/kg”) ([2]; 5 min) is reported as 59 % of Control and the “Blood Pressure Response to 400 ng/kg” value ([2]; 10 min) is reported as 44 % of Control. The “Blood Pressure Response to 400 ng/kg” value ([2]; 15 min) was 44 % of Control, the “Blood Pressure Response to 400 ng/kg” value ([2]; 31 min) was 44 % of Control and the “Blood Pressure Response to 400 ng/kg” value ([2]; 37 min) was 38 % of Control. For the same molecule, the “Blood Pressure Response to 400 ng/kg” value ([2]; 45 min) was 44 % of Control, the “Blood Pressure Response to 400 ng/kg” value ([2]; 55 min) was 44 % of Control and the “Blood Pressure Response to 400 ng/kg” value ([2]; 81 min) was 36 % of Control. The “Blood Pressure Response to 400 ng/kg” value ([2]; 93 min) was 36 % of Control, the “Blood Pressure Response to 400 ng/kg” value ([2]; 104 min) was 38 % of Control and the “Blood Pressure Response to 400 ng/kg” value ([5]; 3 min) was 8 % of Control. For the same molecule, the “Blood Pressure Response to 400 ng/kg” value ([5]; 9 min) was 15 % of Control, the “Blood Pressure Response to 400 ng/kg” value ([5]; 14 min) was 23 % of Control and the “Blood Pressure Response to 400 ng/kg” value ([5]; 19 min) was 23 % of Control. The “Blood Pressure Response to 400 ng/kg” value ([5]; 24 min) was 33 % of Control, the “Blood Pressure Response to 400 ng/kg” value ([5]; 37 min) was 41 % of Control and the “Blood Pressure Response to 400 ng/kg” value ([5]; 45 min) was 46 % of Control. The “Blood Pressure Response to 400 ng/kg” value ([5]; 54 min) was 46 % of Control, the “Blood Pressure Response to 400 ng/kg” value ([5]; 77 min) was 46 % of Control and the “Blood Pressure Response to 400 ng/kg” value ([5]; 87 min) was 51 % of Control.
